# Counter-ions that a name gives are not always drawn.
# Legend:
# CYPs = CYPs metabolic stability assay in HLM (human liver microsomes); assay type: in vitro ADME; conditions: HLM 1 mg/ml protein, compound 5 μM, 60 min, 37° C.; for Control (% remain): absence of NADPH; for CYP+ (% remain): with NADPH 1 mM
# Protocol: Stability of the test compounds was performed in HLM (human liver microsomes) in the presence and in the absence of NADPH.
# The stability was measured using the incubation mixture (100 μl total volume) contained 1 mg/ml total protein, MgCl2 5 mM and 50 mM K-phosphate buffer. Samples were incubated in the presence and in the absence of NADPH 1 mM. Reactions were pre-incubated 5 min and the reaction initiated with the compound under test (at a concentration of 5 μM). Samples were incubated for 60 min in a shaking water bath at 37° C. The reaction was stopped by adding 100 μl of acetonitrile. Samples were then centrifuged, filtered and supematant injected in HLPC-MSD. Test compounds were dissolved in DMSO and the final concentration of DMSO in the reaction was below 0.5% (v/v). At T0 acetonitrile was added before adding the compound. All experiments were performed with samples in duplicate.
# FAAH [1] = molecular target: T1, FAAH (Mus musculus, UniProt O08914); experiment: In vitro/ex vivo FAAH activity determination in brain after intra-tracheal instillation; parameters: Liver and brain fragments were removed and processed for enzymatic activity determination; from tissue; species or system male NMRI mice; conditions: remaining enzymatic activity vs controls
# T1 sequence (O08914 1-579): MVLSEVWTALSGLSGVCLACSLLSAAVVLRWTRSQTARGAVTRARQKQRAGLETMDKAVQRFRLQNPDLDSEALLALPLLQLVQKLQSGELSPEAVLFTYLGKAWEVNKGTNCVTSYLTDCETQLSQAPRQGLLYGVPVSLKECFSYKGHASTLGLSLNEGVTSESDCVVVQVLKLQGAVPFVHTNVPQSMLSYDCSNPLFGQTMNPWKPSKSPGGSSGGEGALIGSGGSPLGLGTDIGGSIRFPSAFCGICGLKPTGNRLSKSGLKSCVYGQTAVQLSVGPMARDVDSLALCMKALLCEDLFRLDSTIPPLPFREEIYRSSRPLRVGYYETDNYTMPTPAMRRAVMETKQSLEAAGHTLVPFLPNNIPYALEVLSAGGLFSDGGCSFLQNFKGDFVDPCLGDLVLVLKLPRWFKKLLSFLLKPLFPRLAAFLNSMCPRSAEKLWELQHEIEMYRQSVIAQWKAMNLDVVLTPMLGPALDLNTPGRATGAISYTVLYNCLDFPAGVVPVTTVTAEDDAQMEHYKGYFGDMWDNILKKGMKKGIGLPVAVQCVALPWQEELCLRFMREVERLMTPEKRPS
# Protocol: (§1) To evaluate the selectivity of test compounds in inhibiting FAAH activity, male NMRI mice were administrated following instillation with 1 mg/kg compound and were sacrificed after 8 h treatment. Liver and brain fragments were removed and processed for enzymatic activity determination.
# (§2) FAAH activity was measured as the amount of ^3H-ethanolamine formed, by liquid scintillation counting, from the hydrolysis of the substrate anandamide (AEA, labeled with ^3H on the ethanolamine part of the molecule). The percentage of remaining enzymatic activity was calculated in respect to controls and after blank subtraction. Therefore, a low value for the test compounds indicates a strong inhibitor.
# (§3) Male NMRI mice (body weight range: 25-35 g) were obtained from Harlan Laboratories (Barcelona, Spain). Animals were kept 10 per cage, under controlled environmental conditions (12 hr light [8 am]/12 hr dark [8 pm]cycle; room temperature 22±1° C.). Food and tap water were allowed ad libitum. Animals were habituated to the animal facilities at least for a week prior to experiments. The experiments were all carried out during daylight hours.
# (§4) Animals were fasted overnight before administration of compounds. […] After administration the animals were given atipamezole (1 mg/kg) to reverse the sedative and analgesic effects induced by the anaesthesia.
# (§5) Fifteen minutes before sacrifice, animals were anesthetized with pentobarbital 60 mg/kg administrated intra-peritoneally. The brain (without cerebellum) and a fragment of liver were collected into plastic vials containing membrane buffer (3 mM MgCl2, 1 mM EDTA, 50 mM Tris HCl, pH 7.4). Glass beads (2.5 mm BioSpec Products, Bartlesville, Okla., USA) were added to the vials containing the brain and liver tissues. Tissues were stored at −20° C. until analysis.
# (§6) Anandamide [ethanolamine-1-^3H-] was obtained from American Radiochemicals—with a specific activity of 60 Ci/mmol. All other reagents were obtained from Sigma-Aldrich. Optiphase Supermix was obtained from Perkin Elmer.
# (§7) Brain and liver tissues were thawed and homogenized in 10 volumes of membrane buffer (3 mM MgCl2, 1 mM EDTA, 50 mM Tris HCl, pH 7.4) with homogenizer Precellys 24 Dual Tissue Homogenizer (Bertin Technologies) for 2 cycles of 5 sec (5000 rpm).
# (§8) Total protein in the tissue homogenates was determined with the BioRad Protein Assay (BioRad) using a standard curve of BSA ([…]). Tissue homogenates were diluted to appropriate concentration for enzymatic determination in assay buffer (1 mM EDTA, 10 mM Tris HCl, pH 7.6).
# (§9) Reaction mix (total volume 200 μL) contained 2 μM AEA (2 μM AEA+5 nM ^3H-AEA), 0.1% fatty acid free BSA, 15 μg (brain) or 5 μg (liver) protein, in assay buffer (1 mM EDTA, 10 mM Tris pH 7.6).
# (§10) The test compound was used at a level of 1 mg/kg protein. After 15 minutes pre-incubation at 37° C. of the protein sample, reaction was started by the addition of the substrate solution (cold AEA+radiolabelled AEA+BSA). Reaction was carried out for 12 minutes for brain and liver tissues. Reaction was terminated by addition of 400 μL chloroform:methanol (1:1, v/v) solution. Reaction samples were vortex twice, left on ice for 5 minutes and then centrifuged in the microfuge for 7 minutes, 7000 rpm. 200 μL of the obtained supernatants were added to […] Optiphase Supermix scintillation cocktail previously distributed in 24-well plates.
# (§11) Counts per minute (cpm) were determined in a Microbeta TriLux scintillation counter. In each assay blank samples (without protein) were prepared.
# FAAH [2] = molecular target: T1, FAAH; experiment: In vitro/ex vivo FAAH activity determination in liver after intra-tracheal instillation; parameters: Liver and brain fragments were removed and processed for enzymatic activity determination; from tissue; host or cells: mouse liver fragment homogenate; species or system male NMRI mice; conditions: remaining enzymatic activity vs controls
# Protocol: as §1, §2, §3, §4, §5, §6, §7, §8, §9, §10, §11
# [3] = 1 mg/kg intra-tracheal instillation, sacrificed after 8 h
# [4] = tested at 0.1 mg/kg rather than 1 mg/kg
# [5] = 1 mg/kg intra-tracheal instillation, sacrificed after 8 h, hydrochloride, 1 mg/kg
# [6] = 1 mg/kg intra-tracheal instillation, sacrificed after 8 h, methanesulfonate, 1 mg/kg
smiles,measurement,setting,value
"CN(C(=O)n1cnc(-c2ccc(OS(N)(=O)=O)cc2)c1)C1CCN(c2ccc(O)cc2)CC1 [Example 28, 4-(1-((1-(4-hydroxyphenyl)piperidin-4-yl)(methyl)carbamoyl)-1H-imidazol-4-yl)phenyl sulfamate hydrochloride]",Control (% remain),CYPs,84.8 % remain
same,CYP+ (% remain),CYPs,66.0 % remain
same,FAAH Activity - Brain itc (% C),FAAH [1]; [3],91.0 % C
same,FAAH Activity - Liver itc (% C),FAAH [2]; [3],3.4 % C
"CN(C(=O)n1cnc(-c2cccc(OS(N)(=O)=O)c2)c1)C1CCN(Cc2ccccc2)CC1 [Example 7, 3-(1-((1-benzylpiperidin-4-yl)(methyl)carbamoyl)-1H-imidazol-4-yl)phenyl sulfamate hydrochloride]",Control (% remain),CYPs,92.6 % remain
same,CYP+ (% remain),CYPs,65.0 % remain
same,FAAH Activity - Brain itc (% C),FAAH [1]; [3],87.2 % C
same,FAAH Activity - Liver itc (% C),FAAH [2]; [3],3.5 % C
"COc1cc(CN2CCC(N(C)C(=O)n3cnc(-c4cccc(C(N)=O)c4)c3)CC2)ccc1F [Example 31, 4-(3-carbamoylphenyl)-N-(1-(4-fluoro-3-methoxybenzyl)piperidin-4-yl)-N-methyl-1H-imidazole-1-carboxamide hydrochloride]",Control (% remain),CYPs,111.7 % remain
same,CYP+ (% remain),CYPs,18.5 % remain
same,FAAH Activity - Brain itc (% C),FAAH [1]; [4],87.7 % C
same,FAAH Activity - Liver itc (% C),FAAH [2]; [4],13.1 % C
"CN(C(=O)n1cnc(-c2cccc(NS(C)(=O)=O)c2)c1)C1CCN(Cc2ccccc2)CC1 [Example 1, N-(1-benzylpiperidin-4-yl)-N-methyl-4-(3-(methylsulfonamido)phenyl)-1H-imidazole-1-carboxamide hydrochloride]",Control (% remain),CYPs,111.4 % remain
same,CYP+ (% remain),CYPs,30.2 % remain
same,FAAH Activity - Brain itc (% C),FAAH [1]; [3],79.0 % C
same,FAAH Activity - Liver itc (% C),FAAH [2]; [3],3.2 % C
"CN(C(=O)n1cnc(-c2cccc(OS(N)(=O)=O)c2)c1)C1CCN(c2ccc(O)cc2)CC1 [Example 15, 3-(1-((1-(4-hydroxyphenyl)piperidin-4-yl)(methyl)carbamoyl)-1H-imidazol-4-yl)phenyl sulfamate hydrochloride]",Control (% remain),CYPs,94.4 % remain
same,CYP+ (% remain),CYPs,87.1 % remain
same,FAAH Activity - Brain itc (% C),FAAH [1]; [3],91.1 % C
same,FAAH Activity - Liver itc (% C),FAAH [2]; [3],3.0 % C
"CN(C(=O)n1cnc(-c2cccc(NC(N)=O)c2)c1)C1CCN(Cc2ccc3c(c2)OCO3)CC1.Cl [Example 18, N-(1-(benzo[d][1,3]dioxol-5-ylmethyl)piperidin-4-yl)-N-methyl-4-(3-ureidophenyl)-1H-imidazole-1-carboxamide hydrochloride]",Control (% remain),CYPs,97.6 % remain
same,CYP+ (% remain),CYPs,76.8 % remain
same,FAAH Activity - Brain itc (% C),FAAH [1]; [3],93.3 % C
same,FAAH Activity - Liver itc (% C),FAAH [2]; [3],3.4 % C
"COc1ccc(F)c(CN2CCC(N(C)C(=O)n3cnc(-c4cccc(C(N)=O)c4)c3)CC2)c1 [Example 32, 4-(3-carbamoylphenyl)-N-(1-(2-fluoro-5-methoxybenzyl)piperidin-4-yl)-N-methyl-1H-imidazole-1-carboxamide hydrochloride]",Control (% remain),CYPs,115.2 % remain
same,CYP+ (% remain),CYPs,14.2 % remain
same,FAAH Activity - Brain itc (% C),FAAH [1]; [4],96.0 % C
same,FAAH Activity - Liver itc (% C),FAAH [2]; [4],12.8 % C
"CN(C(=O)n1cnc(-c2cccc(NS(N)(=O)=O)c2)c1)C1CCN(Cc2ccccc2)CC1 [Example 2, N-(1-benzylpiperidin-4-yl)-N-methyl-4-(3-(sulfamoylamino)phenyl)-1H-imidazole-1-carboxamide hydrochloride]",Control (% remain),CYPs,98.3 % remain
same,CYP+ (% remain),CYPs,68.6 % remain
same,FAAH Activity - Brain itc (% C),FAAH [1]; [3],86.8 % C
same,FAAH Activity - Liver itc (% C),FAAH [2]; [3],5.1 % C
"CN(C(=O)n1cnc(-c2cccc(NC(N)=O)c2)c1)C1CCN(Cc2ccccc2)CC1 [Example 16, N-(1-benzylpiperidin-4-yl)-N-methyl-4-(3-ureidophenyl)-1H-imidazole-1-carboxamide hydrochloride]",Control (% remain),CYPs,101.4 % remain
same,CYP+ (% remain),CYPs,17.0 % remain
same,FAAH Activity - Brain itc (% C),FAAH [1]; [5],96.9 % C
same,FAAH Activity - Liver itc (% C),FAAH [2]; [5],4.5 % C
"CN(C(=O)n1cnc(-c2cccc(NC(N)=O)c2)c1)C1CCN(c2ccc(O)cc2)CC1 [Example 25, N-(1-(4-hydroxyphenyl)piperidin-4-yl)-N-methyl-4-(3-ureidophenyl)-1 H-imidazole-1-carboxamide hydrochloride]",Control (% remain),CYPs,61.5 % remain
same,CYP+ (% remain),CYPs,49.1 % remain
same,FAAH Activity - Brain itc (% C),FAAH [1]; [3],100.7 % C
same,FAAH Activity - Liver itc (% C),FAAH [2]; [3],9.0 % C
"COc1cc(CN2CCC(N(C)C(=O)n3cnc(-c4ccc(OS(N)(=O)=O)cc4)c3)CC2)cc(OC)c1 [Example 27, 4-(1-((1-(3,5-dimethoxybenzyl)piperidin-4-yl)(methyl)carbamoyl)-1H-imidazol-4-yl)phenyl sulfamate methanesulfonate]",Control (% remain),CYPs; methanesulfonate,96.9 % remain
same,CYP+ (% remain),CYPs; methanesulfonate,26.7 % remain
same,FAAH Activity - Brain itc (% C),FAAH [1]; [6],84.3 % C
same,FAAH Activity - Liver itc (% C),FAAH [2]; [6],13.9 % C
"CN(C(=O)n1cnc(-c2cccc(OS(N)(=O)=O)c2)c1)C1CCN(c2ccc(Br)c(O)c2)CC1 [Example 29, 3-(1-((1-(4-bromo-3-hydroxyphenyl)piperidin-4-yl)(methyl)carbamoyl)-1 H-imidazol-4-yl)phenyl sulfamate hydrochloride]",Control (% remain),CYPs,79.6 % remain
same,CYP+ (% remain),CYPs,79.5 % remain
same,FAAH Activity - Brain itc (% C),FAAH [1]; [3],97.6 % C
same,FAAH Activity - Liver itc (% C),FAAH [2]; [3],10.5 % C

# Source: US20160166560A1, “Urea Compounds and Their Use as FAAH Enzyme Inhibitors” (BIAL-PORTELA & Cª, S.A., priority 2013, published 2016)
